Reference: patent publication US20260001847A1, “HERBICIDAL QUINOLONE DERIVATIVES” (SYNGENTA CROP PROTECTION AG, priority 2022, published 2026)

Columns and labels:
Type in all cases: in vivo
Settings in all cases: 1000 g/ha, evaluated after 13 days
[1] = test system: Abutilon theophrasti (ABUTH); test: Pre-emergence Test
[2] = test system: Ipomoea hederacea (IPOHE); test: Pre-emergence Test
[3] = test system: Setaria faberi (SETFA); test: Pre-emergence Test
[4] = test system: Echinochloa crus-galli (ECHCG); test: Pre-emergence Test
[5] = test system: Zea mays (ZEAMX); test: Pre-emergence Test
[6] = test system: Amaranthus retoflexus (AMARE); test: Post-emergence Test
Procedure: (§1) Seeds of a variety of test species are sown in standard soil in pots (Abutilon theophrasti (ABUTH), Ipomoea hederacea (IPOHE). Setaria faberi (SETFA), Echinochloa crus-galli (ECHCG), Zea mays (ZEAMX), Amaranthus retoflexus (AMARE), Solanum nigrum (SOLNI), Lolium perenne (LOLPE), Amaranthus palmeri (AMAPA)). After 8 days cultivation under controlled conditions in a glasshouse (at 24° C./16° C., day/night-; 14 hours light; 65% humidity), the plants are sprayed with an aqueous spray solution derived from the formulation of the technical active ingredient in acetone/water (50:50) solution containing 0.5% Tween 20 (polyoxyethylene sorbitan monolaurate, CAS RN 9005-64-5). Compounds are applied at 1000 g/ha unless otherwise stated. The test plants are then grown in a glasshouse under controlled conditions in a glasshouse (at 24° C./16° C., day/night; 14 hours light; 65% humidity) and watered twice daily. After 13 days the test is evaluated for the percentage damage caused to the plant. The biological activities are shown in the following table on a five-point scale (5=81-100%; 4=61-80%; 3=41-60%; 2=21-40%; 1=0-20%; -=not tested).

[7] = test system: Echinochloa crus-galli (ECHCG); test: Post-emergence Test
Procedure: as §1

[8] = test system: Ipomoea hederacea (IPOHE); test: Post-emergence Test
Procedure: as §1

[9] = test system: Setaria faberi (SETFA); test: Post-emergence Test
Procedure: as §1

[10] = test system: Zea mays (ZEAMX); test: Post-emergence Test
Procedure: as §1

[11] = test system: Amaranthus retoflexus (AMARE); test: Pre-emergence Test
[12] = test system: Solanum nigrum (SOLNI); test: Pre-emergence Test
[13] = test system: Lolium perenne (LOLPE); test: Pre-emergence Test
[14] = test system: Abutilon theophrasti (ABUTH); test: Post-emergence Test
Procedure: as §1

[15] = test system: Lolium perenne (LOLPE); test: Post-emergence Test
Procedure: as §1

[16] = test system: Solanum nigrum (SOLNI); test: Post-emergence Test
Procedure: as §1

[17] = test system: Amaranthus palmeri (AMAPA); test: Pre-emergence Test
[18] = test system: Amaranthus palmeri (AMAPA); test: Post-emergence Test
Procedure: as §1

SMILES	percentage damage caused to the plant, ABUTH [1]	percentage damage caused to the plant, IPOHE [2]	percentage damage caused to the plant, SETFA [3]	percentage damage caused to the plant, ECHCG [4]	percentage damage caused to the plant, ZEAMX [5]	percentage damage caused to the plant, AMARE [6]	percentage damage caused to the plant, ECHCG [7]	percentage damage caused to the plant, IPOHE [8]	percentage damage caused to the plant, SETFA [9]	percentage damage caused to the plant, ZEAMX [10]	percentage damage caused to the plant, AMARE [11]	percentage damage caused to the plant, SOLNI [12]	percentage damage caused to the plant, LOLPE [13]	percentage damage caused to the plant, ABUTH [14]	percentage damage caused to the plant, LOLPE [15]	percentage damage caused to the plant, SOLNI [16]	percentage damage caused to the plant, AMAPA [17]	percentage damage caused to the plant, AMAPA [18]
CCn1c(-c2ccc(Cl)c(Cl)c2)c(C(=O)O)c(=O)c2ccc(OC)cc21 [Compound 1, 2-(3,4-dichlorophenyl)-1-ethyl-7-methoxy-4-oxo-quinoline-3-carboxylic acid]	3 (3=41-60%)	2 (2=21-40%)	2 (2=21-40%)	1 (1=0-20%)	1 (1=0-20%)	0	1 (1=0-20%)	3 (3=41-60%)	2 (2=21-40%)	0								
CCn1c(-c2ccc(Cl)c(Cl)c2)c(C(=O)O)c(=O)c2c(C(F)(F)F)cccc21 [Compound 2, 2-(3,4-dichlorophenyl)-1-ethyl-4-oxo-5-(trifluoromethyl)quinoline-3-carboxylic acid]	2 (2=21-40%)	2 (2=21-40%)	5 (5=81-100%)	5 (5=81-100%)	1 (1=0-20%)	2 (2=21-40%)	5 (5=81-100%)	3 (3=41-60%)	4 (4=61-80%)	3 (3=41-60%)	2 (2=21-40%)	2 (2=21-40%)	0	3 (3=41-60%)	1 (1=0-20%)	2 (2=21-40%)		
CCn1c(-c2ccc(Cl)c(Cl)c2)c(C(=O)O)c(=O)c2ccccc21 [Compound 3, 2-(3,4-dichlorophenyl)-1-ethyl-4-oxo-quinoline-3-carboxylic acid]	1 (1=0-20%)	3 (3=41-60%)	5 (5=81-100%)	5 (5=81-100%)	3 (3=41-60%)	3 (3=41-60%)	3 (3=41-60%)	4 (4=61-80%)	4 (4=61-80%)	1 (1=0-20%)	2 (2=21-40%)	4 (4=61-80%)	3 (3=41-60%)	2 (2=21-40%)	2 (2=21-40%)	4 (4=61-80%)		
CCn1c(-c2ccc(Cl)c(Cl)c2)c(C(=O)O)c(=O)c2cc(SC)ccc21 [Compound 11, 2-(3,4-dichlorophenyl)-1-ethyl-6-methylsulfanyl-4-oxo-quinoline-3-carboxylic acid]		1 (1=0-20%)	5 (5=81-100%)	5 (5=81-100%)	2 (2=21-40%)	2 (2=21-40%)	4 (4=61-80%)	1 (1=0-20%)	3 (3=41-60%)	2 (2=21-40%)	1 (1=0-20%)						3 (3=41-60%)	3 (3=41-60%)
CCn1c(-c2ccc(Cl)c(Cl)c2)c(C(=O)O)c(=O)c2cc(S(C)(=O)=O)ccc21 [Compound 12, 2-(3,4-dichlorophenyl)-1-ethyl-6-methylsulfonyl-4-oxo-quinoline-3-carboxylic acid]		1 (1=0-20%)	5 (5=81-100%)	5 (5=81-100%)	1 (1=0-20%)	3 (3=41-60%)	4 (4=61-80%)	2 (2=21-40%)	3 (3=41-60%)	1 (1=0-20%)	3 (3=41-60%)						3 (3=41-60%)	2 (2=21-40%)
CCn1c(-c2ccc(Cl)c(Cl)c2)c(C(=O)O)c(=O)c2cc(C)ccc21 [Compound 14, 2-(3,4-dichlorophenyl)-1-ethyl-6-methyl-4-oxo-quinoline-3-carboxylic acid]		2 (2=21-40%)	4 (4=61-80%)	4 (4=61-80%)	2 (2=21-40%)	5 (5=81-100%)	3 (3=41-60%)	3 (3=41-60%)	3 (3=41-60%)	2 (2=21-40%)	5 (5=81-100%)						5 (5=81-100%)	5 (5=81-100%)
CCn1c(-c2ccc(Cl)c(Cl)c2)c(C(=O)O)c(=O)c2cc(OC)ccc21 [Compound 15, 2-(3,4-dichlorophenyl)-1-ethyl-6-methoxy-4-oxo-quinoline-3-carboxylic acid]		2 (2=21-40%)	5 (5=81-100%)	4 (4=61-80%)	1 (1=0-20%)	2 (2=21-40%)	3 (3=41-60%)	2 (2=21-40%)	2 (2=21-40%)	1 (1=0-20%)	3 (3=41-60%)						3 (3=41-60%)	2 (2=21-40%)
CCn1c(-c2ccc(F)cc2)c(C(=O)O)c(=O)c2ccccc21 [Compound 18, 1-ethyl-2-(4-fluorophenyl)-4-oxo-quinoline-3-carboxylic acid]		0	3 (3=41-60%)	2 (2=21-40%)	0	1 (1=0-20%)	1 (1=0-20%)	0	1 (1=0-20%)	1 (1=0-20%)	1 (1=0-20%)						1 (1=0-20%)	1 (1=0-20%)
